Tests used:
α-synuclein lesions = biological target: T1, α-synuclein lesions (Mus musculus, UniProt O55042); test: In vivo two-photon laser scanning fluorescence microscopy of α-synuclein fibril-inoculated mouse; conditions: 50 μl of 0.1% DMSO solution, imaging 30 minutes after administration, FIG. 4; for binding to α-synuclein lesions in vivo: excitation 900 nm
T1 construct: from tissue; host or cells: brain of a C57/BL/6 mouse inoculated in the striatum with recombinant mouse α-synuclein fibrils (made in E. coli)
Description: First, mouse α-synuclein was expressed in and extracted from E. coli as a recombinant protein, and then incubated in vitro to form insoluble α-synuclein aggregates. The α-synuclein aggregates were then inoculated into the striatum of a mouse. […] Note that the inoculation of the α-synuclein aggregates into the striatum of the mouse was carried out in the following manner. First, hair on the head of a 9-week-old C57/BL/6 male mouse which had been anesthetized with 1.5% (v/v) isoflurane was removed, and the scalp was disinfected with isodine, followed by application of xylocaine and incision in the scalp to expose the skull. Then, a hole was drilled in the skull at a position of 0.05 mm posterior to the bregma and 2 mm lateral to the midline, and 3 μl of an α-synuclein fibril solution (mouse α-synuclein fibril (4 mg/ml) in saline) was injected into a position 2 mm ventral to the brain surface with use of a glass pipette. The scalp was then returned and sutured.
A model mouse was anesthetized with 1.5% (v/v) isoflurane 4 or more months after inoculation of an α-synuclein fibril solution. Then, a cranial window was placed on the model mouse in accordance with the Seylaz-Tomita method (Tomita et al. J Cereb Blood Flow Metab 25, 858-67, 2005). Two or more weeks after the placement of the cranial window, the mouse was fixed under a two-photon laser fluorescence microscope, 100 μl of physiological saline containing 5 mmol/1 Sulforhodamine 101 was intraperitoneally administered to the mouse, and then intravital two-photon fluorescence imaging was carried out at an excitation wavelength of 900 nm. Thereafter, 50 μl of DMSO solution containing C05-05, SPAL-T-83, SPAL-T-95, or SPAL-E-17 at a 0.1% concentration was intraperitoneally administered to the mouse. Thirty minutes after the administration, intravital two-photon fluorescence imaging was carried out at an excitation wavelength of 900 nm. Detection wavelengths for C05-05, SPAL-T-83, SPAL-T-95, and SPAL-E-17 were set at 500 nm to 550 nm, and a detection wavelength for Sulforhodamine 101 was set at 573 nm to 648 nm. In FIG. 4, each arrow indicates a blood vessel, and each arrowhead indicates fluorescence from the compound binding to an α-synuclein lesion.

[1] = tested on: tau aggregates or amyloid-β aggregates; test: In vitro fluorescence microscope measurement, AD patient brain sections compared with DLB sections; type: binding, human; conditions: for binding to α-synuclein aggregates compared with binding to tau aggregates or amyloid-β aggregates formed in the brain of the AD patient: 30 μmol/l test compound, DLB amygdala vs AD superior temporal gyrus sections; for ratio of binding to α-synuclein aggregates to binding to tau aggregates or amyloid-β aggregates, compared with the ratio of C05-05: 30 μmol/l, fluorescence intensity quantified, FIG. 2, comparator C05-05
Description: (§1) Postmortem human brains were obtained in autopsies carried out with respect to a patient with dementia with Lewy bodies (DLB) and a patient with Alzheimer's disease (AD). In a cryostat (HM560, Carl Zeiss), frozen tissue from the DLB patient was sliced into sections each having a thickness of 20 μm. Brain tissue from the AD patient was fixed in 10% neutral buffered formalin, embedded in a paraffin block, and sliced into sections each having a thickness of 6 μm.
(§2) Each brain section and a 30 μmol/l test compound were incubated in a 50% ethanol solution at room temperature for 30 minutes. Subsequently, the sections were rinsed with 50% ethanol for 5 minutes and dipped into double-distilled water twice for 3 minutes each. After the section was mounted in a mounting medium (VECTASHIELD H-1000, Vector Laboratories), an image of a lesion-enriched area on the section was obtained with use of a fluorescence microscope (DM4000, Leica). In FIG. 1, each arrowhead indicates fluorescence from the compound binding to α-synuclein aggregates in the brain of the DLB patient, each arrow indicates fluorescence from the compound binding to amyloid-β aggregates in the brain of the AD patient, and an asterisk indicates fluorescence from the compound binding to tau aggregates in the brain of the AD patient. The fluorescence intensities of lesion-enriched areas and lesion-free areas (background) were quantified with use of analysis software (Image J). Note that SPAL-T-83, SPAL-T-95, and SPAL-E-17 were each used as the test compound. Note also that ((E)-1-fluoro-3-(2-(4-(6-(methylamino)pyridin-3-yl)but-1-en-3-ynyl)benzo[d]thiazol-6-yloxy)propan-2-ol (C05-05) synthesized by the method disclosed in Synthetic Example 21 of Patent Literature 2 (International Publication No. WO 2020/174963) listed above was used as a control compound.

[2] = biological target: T2, phosphorylated α-synuclein (Mus musculus, UniProt O55042); test: In vitro fluorescence microscope measurement, brain sections of α-synuclein fibril-inoculated mouse; type: binding; conditions: 30 μmol/l test compound, 20% ethanol, co-stained with pS129 antibody, FIG. 3
T2 construct: from tissue; host or cells: brain of a C57/BL/6 mouse inoculated in the striatum with recombinant mouse α-synuclein fibrils (made in E. coli)
Description: When mouse α-synuclein is expressed in and extracted from E. coli as a recombinant protein and then incubated in vitro, insoluble α-synuclein aggregates are formed. By inoculating these α-synuclein aggregates into the striatum of a mouse, the α-synuclein aggregates propagate to surrounding areas via the neural circuitry, and an α-synuclein lesion is observed in the cerebral neocortex several months later (Masuda-Suzukake et al. Acta Neuropathol Commun 2, 88, 2014; Shimozawa et al. Acta Neuropathol Commun 5, 12, 2017). By extracting the brain of this mouse, preparing a section, and then analyzing the section by fluorescent staining, it is possible to examine whether the compound in accordance with an embodiment of the present invention binds to a lesion caused by phosphorylated α-synuclein.
First, mouse α-synuclein was expressed in and extracted from E. coli as a recombinant protein, and then incubated in vitro to form insoluble α-synuclein aggregates. The α-synuclein aggregates were then inoculated into the striatum of a mouse. […] Note that the inoculation of the α-synuclein aggregates into the striatum of the mouse was carried out in the following manner. […]
The brain of this α-synuclein fibril-inoculated mouse was extracted, and then sections were prepared. The sections were analyzed by fluorescent staining. […] After the section was mounted in a mounting medium (VECTASHIELD H-1000), an image of an α-synuclein aggregate-enriched area on the section was obtained with use of a fluorescence microscope (DM4000). […] After the section was subjected to immunohistochemical staining with use of an anti-phosphorylated α-synuclein monoclonal antibody (pS129, abcam, ab59264) (1:1000) and then mounted in a mounting medium (VECTASHIELD H-1000), an image of the same area as above was obtained with use of a fluorescence microscope (DM4000). […] In FIG. 3, each arrowhead indicates a lesion, caused by phosphorylated α-synuclein, in the brain of the α-synuclein fibril-inoculated mouse and fluorescence from the compound binding to the phosphorylated α-synuclein.

α-synuclein aggregates [3] = biological target: T3, α-synuclein aggregates (Homo sapiens, UniProt P37840); test: In vitro fluorescence microscope measurement, DLB patient brain sections; type: binding; design: from tissue; host or cells: amygdala sections of a DLB patient's postmortem brain; conditions: 30 μmol/l test compound, 50% ethanol, amygdala sections of DLB patient, FIGS. 1 and 2
Description: as §1, §2

α-synuclein aggregates [4] = biological target: T3, α-synuclein aggregates; conditions: background art, cited from earlier work

SMILES | delivery into the brain and neurons of the living body (α-synuclein lesions) | binding to α-synuclein lesions in vivo (α-synuclein lesions) | binding to α-synuclein aggregates compared with binding to tau aggregates or amyloid-β aggregates formed in the brain of the AD patient [1] | ratio of binding to α-synuclein aggregates to binding to tau aggregates or amyloid-β aggregates, compared with the ratio of C05-05 [1] | binding to a lesion caused by phosphorylated α-synuclein [2] | binding to α-synuclein aggregates formed in the brain of the DLB patient (fluorescence) (α-synuclein aggregates [3]) | binding selectivity with respect to the α-synuclein aggregates (α-synuclein aggregates [4]; binds to amyloid-β aggregates) | binding affinity with respect to the α-synuclein aggregates (α-synuclein aggregates [4])
CNc1ccc(C#C/C=C/c2nc3ccc(OCC(O)CF)cc3s2)cn1 (stereo not shown) [Compound C05-05, reference compound] | delivered into the brain and further into neurons of the living body | bound to α-synuclein lesions | – | – | – | – | – | –
CNc1cnc(C#C/C=C/c2nc3ccc(OCC(O)CF)nc3s2)cn1 (stereo not shown) [SPAL-E-17, (E)-1-fluoro-3-((2-(4-(5-(methylamino)pyrazin-2-yl)but-1-en-3-yn-1-yl)thiazolo[5,4-b]pyridin-5-yl)oxy)propan-2-ol] | delivered into the brain and further into neurons of the living body | bound to α-synuclein lesions | greater | higher | bound to a lesion caused by phosphorylated α-synuclein | bound to α-synuclein aggregates | – | –
CNc1cnc(C#C/C=C/c2nc3ccc(NCC(O)CF)cc3s2)cn1 (stereo not shown) [SPAL-T-83, (E)-1-fluoro-3-((2-(4-(5-(methylamino)pyrazin-2-yl)but-1-en-3-yn-1-yl)benzo[d]thiazol-6-yl)amino)propan-2-ol] | delivered into the brain and further into neurons of the living body | bound to α-synuclein lesions | greater | higher | bound to a lesion caused by phosphorylated α-synuclein | bound to α-synuclein aggregates | – | –
CNc1ccc(C#C/C=C/c2nc3ccc(NCC(O)CF)cc3s2)cn1 (stereo not shown) [SPAL-T-95, (E)-1-fluoro-3-((2-(4-(6-(methylamino)pyridin-3-yl)but-1-en-3-yn-1-yl)benzo[d]thiazol-6-yl)amino)propan-2-ol] | delivered into the brain and further into neurons of the living body | bound to α-synuclein lesions | greater | higher | bound to a lesion caused by phosphorylated α-synuclein | bound to α-synuclein aggregates | – | –
CN([11CH3])c1ncc(/C=C/c2nc3ccc(OCCF)cc3o2)s1 [[^11C]BF-227] | – | – | – | – | – | – | low binding selectivity | insufficient binding affinity

— patent US20250177579A1, “NOVEL COMPOUND, a-SYNUCLEIN AGGREGATE BINDER, AND USE THEREOF” (NATIONAL INSTITUTES FOR QUANTUM SCIENCE AND TECHNOLOGY, priority 2022, published 2025)
